The values that follow come from patent publication US9834558B2, “Substituted bridged urea analogs as sirtuin modulators” (GLAXOSMITHKLINE LLC, priority 2013, dated 2017).

Each structure is given as a SMILES string. Read-outs that look alike come from different tables or passages of the source.

The target in this assay is T1, SIRT1 (Homo sapiens, UniProt Q96EB6).
T1 sequence (Q96EB6 1-747): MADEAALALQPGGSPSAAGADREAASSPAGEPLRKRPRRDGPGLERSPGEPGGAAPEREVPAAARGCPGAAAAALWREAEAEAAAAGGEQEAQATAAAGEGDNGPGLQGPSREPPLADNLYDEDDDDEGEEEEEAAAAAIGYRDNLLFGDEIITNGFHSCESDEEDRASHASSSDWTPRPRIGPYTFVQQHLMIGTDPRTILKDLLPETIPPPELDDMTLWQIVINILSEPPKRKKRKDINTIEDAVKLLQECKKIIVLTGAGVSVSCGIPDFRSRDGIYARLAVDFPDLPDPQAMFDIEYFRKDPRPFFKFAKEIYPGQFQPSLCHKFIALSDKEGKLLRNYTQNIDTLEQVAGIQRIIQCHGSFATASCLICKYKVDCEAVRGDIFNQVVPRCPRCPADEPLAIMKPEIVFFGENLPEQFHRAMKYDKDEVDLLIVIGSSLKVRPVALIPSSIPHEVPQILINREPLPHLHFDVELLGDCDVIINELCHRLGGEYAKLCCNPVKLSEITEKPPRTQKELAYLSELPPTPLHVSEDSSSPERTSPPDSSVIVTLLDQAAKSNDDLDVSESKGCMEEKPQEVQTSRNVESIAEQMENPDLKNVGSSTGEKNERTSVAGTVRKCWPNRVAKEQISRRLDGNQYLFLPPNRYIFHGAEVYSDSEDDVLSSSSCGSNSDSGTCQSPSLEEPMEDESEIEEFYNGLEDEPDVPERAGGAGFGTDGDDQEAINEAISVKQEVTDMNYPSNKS
As to the kind of experiment: Trp mass spectrometry assay of SIRT1 activation. Particulars: for TRP Activity (EC1.5): EC1.5 = concentration that results in 150% activation of SIRT1. It counts as biochemical. A digest of the protocol: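 N-terminal His-tagged human SIRT1 (10 nM, E. coli BL21(DE3)) with 0.5 μM Ac-RHKK(Ac)W-NH2 peptide and 120 μM βNAD+, 25 min at 25 °C in HEPES pH 7.5, formic acid stop. OAADPR or deacetylated peptide quantified by mass spectrometry; EC1.5 (50% activity increase over control) and Percent Maximum Activation reported.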

[1] abbreviates: Trp peptide assay, maximum activity relative to control (100%), read-out: TRP MAX RESP (percent maximum fold activation).
The mark [2] stands for this setting: Trp mass spectrometry assay, concentration of test compound giving 150% activation of SIRT1.
[3] abbreviates: Trp peptide substrate, concentration giving 150% activation of SIRT1.
Where [4] appears, read: Trp mass spectrometry assay, EC1.5 = concentration of test compound that results in 150% activation of SIRT1.
The mark [5] stands for this setting: concentration giving 150% activation of SIRT1, Trp peptide substrate.

For the compound `Cc1cc(-c2ccc3c(n2)N(C(=O)Nc2cccc4nnc(C)cc24)[C@H]2CCN3C2)ccn1` [(9S)-N-(3-methylcinnolin-5-yl)-5-(2-methylpyridin-4-yl)-1,6,8-triazatricyclo[7.2.1.0 {2,7}]dodeca-2(7),3,5-triene-8-carboxamide], the “TRP Activity (EC1.5)” value (Trp peptide assay) is listed as “B (B (EC1.5 1-25 μM))”. In addition, the Emax under setting [1] was greater than 150%.

Take `COc1cc(NC(=O)N2c3nc(-c4cccc(Cl)c4)ccc3N3CCC[C@H]2C3)ncn1` [Example 408]: under setting [2], the “Tryp AVG EC1.5 (μM)” value is on record as “A (A (EC1.5<1 μM))”. With `Cc1cnc2c(NC(=O)N3c4nc(-c5cccc(C(F)(F)F)c5)ccc4N4CC[C@H]3C4)cccc2n1` [76 (8)], the “Tryp AVG EC1.5 (μM)” value under setting [3] was “A (A (EC1.5<1 μM))”. For `O=C(Nc1ccccn1)N1c2nc(-c3cccc(N4CCOCC4)c3)ccc2N2CCC[C@H]1C2` [Example 536], under setting [4], the “Tryp AVG EC1.5 (μM)” value is “B (B (EC1.5 1-25 μM))”. Take `O=C(Nc1cccnn1)N1c2nc(-c3cncc(C(F)(F)F)c3)ccc2N2C[C@@H](O)[C@H]1C2` [Example 701]: under setting [5], the “Tryp AVG EC1.5 (μM)” value is listed as “B (B (EC1.5 1-25 μM))”. With `CS(=O)(=O)Nc1cccc(-c2ccc3c(n2)N(C(=O)Nc2cnccn2)[C@H]2CCN3C2)c1` [Example 418], the “Tryp AVG EC1.5 (μM)” value under setting [4] is reported as “B (B (EC1.5 1-25 μM))”. Still for that read-out and setting: as for `O=C(Nc1cnccn1)N1c2nc(-c3cncc(Cl)c3)ccc2N2CCC1CC2` [Example 550], the entry is “B (B (EC1.5 1-25 μM))”. With `O=C(NC1CC1)c1ccc2c(n1)N(C(=O)Nc1ccccn1)[C@H]1CCN2C1` [(9S)-5-N-cyclopropyl-8-N-(pyridin-2-yl)-1,6,8-triazatricyclo[7.2.1.0^{2,7}]dodeca-2(7),3,5-triene-5,8-dicarboxamide], the “TRP Activity (EC1.5)” value (Trp peptide assay) is “A (A (EC1.5<1 μM))”. For the same compound, under “read-out: TRP MAX RESP (percent maximum fold activation)”, the Emax is greater than 150%.

For the compound `Cc1nc(NC(=O)N2c3nc(-c4cccc(C(F)(F)F)c4)ccc3N3CC[C@H]2C3)nc2c1CCC2` [Example 91], under setting [3], the “Tryp AVG EC1.5 (μM)” value is recorded as “B (B (EC1.5 1-25 μM))”. Turning to `O=C(NCc1ccccc1)N1c2nc(-c3cccc(C(F)(F)F)c3)ccc2N2CC[C@H]1C2` [Example 597], the “Tryp AVG EC1.5 (μM)” value under setting [4] is listed as “B (B (EC1.5 1-25 μM))”.

On to `O=C(Nc1cnccn1)N1c2nc(N3CCCCC3)ccc2N2CC[C@H]1C2` [(9S)-5-(piperidin-1-yl)-N-(pyrazin-2-yl)-1,6,8-triazatricyclo[7.2.1.0 {2,7}]dodeca-2,4,6-triene-8-carboxamide], for which, under “Trp peptide assay”, the “TRP Activity (EC1.5)” value is reported as “B (B (EC1.5 1-25 μM))”. The Emax under setting [1] is greater than 150%. For `Cc1nn(C)cc1-c1ccc2c(n1)N(C(=O)Nc1cccnc1)[C@H]1CCN2C1` [Example 488], under setting [4], the “Tryp AVG EC1.5 (μM)” value was “B (B (EC1.5 1-25 μM))”.

Consider `Cc1ccc(-c2ccc3c(n2)N(C(=O)NC2CC(F)(F)C2)[C@H]2CCN3C2)cn1` [(9S)-N-(3,3-difluorocyclobutyl)-5-(6-methylpyridin-3-yl)-1,6,8-triazatricyclo[7.2.1.0 {2,7}]dodeca-2(7),3,5-triene-8-carboxamide], for which the “TRP Activity (EC1.5)” value (Trp peptide assay) is on record as “B (B (EC1.5 1-25 μM))”. The Emax under setting [1] was greater than 150%. `O=C(Nc1cccnc1)N1c2nc(C3CCCC(C(F)(F)F)C3)ccc2N2CC[C@H]1C2` (stereo partly shown) [Example 99]: the “Tryp AVG EC1.5 (μM)” value under setting [3] is “A (A (EC1.5<1 μM))”. For the compound `O=C(Nc1ccccn1)N1c2nc(N3CC[C@H](C(F)(F)F)C3)ccc2N2CCC[C@H]1C2` [drawing 1101, (9S)-N-(pyridin-2-yl)-5-[(3S)-3-(trifluoromethyl)pyrrolidin-1-yl]-1,6,8-triazatricyclo[7.3.1.0 {2,7}]trideca-2(7),3,5-triene-8-carboxamide], the “TRP Activity (EC1.5)” value (Trp peptide assay) was “B (B (EC1.5 1-25 μM))”. Take `C#CCNc1nccc(NC(=O)N2c3nc(-c4cccc(C5(C(F)(F)F)N=N5)c4)ccc3N3CC[C@H]2C3)n1` [Example 804]: under setting [5], the “Tryp AVG EC1.5 (μM)” value is listed as “A (A (EC1.5<1 μM))”. With `Cc1cc(-c2ccc3c(n2)N(C(=O)Nc2ccc4c(c2)OCCCO4)[C@H]2CCN3C2)ccn1` [(9S)-N-(3,4-dihydro-2H-1,5-benzodioxepin-7-yl)-5-(2-methylpyridin-4-yl)-1,6,8-triazatricyclo[7.2.1.0 {2,7}]dodeca-2,4,6-triene-8-carboxamide], where the note is “Trp peptide assay”, the “TRP Activity (EC1.5)” value is on record as “A (A (EC1.5<1 μM))”. In addition, under setting [1], the Emax is greater than 150%. On to `O=C(Nc1ccncn1)N1c2nc(-c3cncc(F)c3)ccc2N2CCC1CC2` [Example 573], for which the “Tryp AVG EC1.5 (μM)” value under setting [4] is on record as “C (C (EC1.5>25 μM))”. For the compound `NS(=O)(=O)c1ccc(NC(=O)N2c3nc(-c4cccc(C(F)(F)F)c4)ccc3N3CC[C@H]2C3)cc1` [Example 643], the “Tryp AVG EC1.5 (μM)” value under setting [5] is recorded as “A (A (EC1.5<1 μM))”.

`Cc1nn(C)c(C)c1-c1ccc2c(n1)N(C(=O)Nc1cccnc1)[C@H]1CCN2C1` [Example 486]: under setting [4], the “Tryp AVG EC1.5 (μM)” value is reported as “C (C (EC1.5>25 μM))”. Still for that read-out and setting: as for `CC(C)(C)OC(=O)N1CCc2cc(NC(=O)N3c4nc(-c5cccc(C(F)(F)F)c5)ccc4N4CC[C@H]3C4)ccc2C1` [Example 611], the entry is “A (A (EC1.5<1 μM))”.

In the case of `CC(C)(C)OC(=O)NCC#Cc1cc(NC(=O)N2c3nc(-c4cccc(C(F)(F)F)c4)ccc3N3CCC[C@H]2C3)cc(-c2cnco2)c1` [Example 760], the “Tryp AVG EC1.5 (μM)” value under setting [5] is “A (A (EC1.5<1 μM))”. `Cc1c(-c2ccc3c(n2)C(C(=O)Nc2ccccn2)[C@H]2CCN3C2)cnn1C` (stereo partly shown) [Example 531]: the “Tryp AVG EC1.5 (μM)” value under setting [4] was “B (B (EC1.5 1-25 μM))”. Moreover, the Emax (Trp mass spectrometry assay, percent maximum fold activation of SIRT1, read-out: Tryp % Fold Act) is greater than 150%. `O=C(NCCCc1ccccc1)N1c2nc(-c3cccc(C(F)(F)F)c3)ccc2N2CC[C@H]1C2` [Example 599]: the “Tryp AVG EC1.5 (μM)” value under setting [4] is “B (B (EC1.5 1-25 μM))”. Still for that read-out and setting: the same measure for `CC(C)(C)OC(=O)NCCn1cc(-c2cccc(NC(=O)N3c4nc(-c5cccc(C(F)(F)F)c5)ccc4N4CCC[C@H]3C4)c2)nn1` [Example 604]: “A (A (EC1.5<1 μM))”; for `Cc1nc(NC(=O)N2c3nc(-c4cccnc4)ccc3N3CCC[C@H]2C3)sc1C` [Example 466]: “B (B (EC1.5 1-25 μM))”. Regarding `O=C(Nc1nc2ccccc2s1)N1c2nc(-c3cccc(C(F)(F)F)c3)ccc2N2CC[C@H]1C2` [Example 90], the “Tryp AVG EC1.5 (μM)” value under setting [3] was “A (A (EC1.5<1 μM))”. Turning to `O=C(Nc1ccncc1)N1c2nc(-c3cccc(C(F)(F)F)c3)ccc2N2CC[C@H]1C2` [Example 817], the “Tryp AVG EC1.5 (μM)” value under setting [5] was “A (A (EC1.5<1 μM))”. With `O=C(Nc1ccccn1)N1c2nc(-c3ccnc(N4CC[C@@H](F)C4)c3)ccc2N2CC[C@H]1C2` [Example 448], the “Tryp AVG EC1.5 (μM)” value under setting [4] was “B (B (EC1.5 1-25 μM))”. In the case of `Cc1noc(C)c1-c1ccc2c(n1)N(C(=O)Nc1cnccn1)[C@H]1CCN2C1` [Example 413], under setting [2], the “Tryp AVG EC1.5 (μM)” value is reported as “C (C (EC1.5>25 μM))”. The same measure, in the same setting: as for `CS(=O)(=O)c1cncc(-c2ccc3c(n2)N(C(=O)Nc2cccnn2)[C@H]2CCCN3C2)c1` [Example 380], the entry is “A (A (EC1.5<1 μM))”. For the compound `CC(C)(C)c1nnc(NC(=O)N2c3nc(-c4cccc(C(F)(F)F)c4)ccc3N3CC[C@H]2C3)s1` [Example 649], the “Tryp AVG EC1.5 (μM)” value under setting [5] is “B (B (EC1.5 1-25 μM))”. For the compound `CC(CO)NC(=O)c1ccc2c(n1)N(C(=O)Nc1ccccn1)[C@H]1CCN2C1` (stereo partly drawn) [(9S)-5-N-(1-hydroxypropan-2-yl)-8-N-(pyridin-2-yl)-1,6,8-triazatricyclo[7.2.1.0^{2,7}]dodeca-2(7),3,5-triene-5,8-dicarboxamide], where the note is “Trp peptide assay”, the “TRP Activity (EC1.5)” value was “B (B (EC1.5 1-25 μM))”. Further, the Emax under setting [1] was greater than 150%. For `Cc1ccc(-c2ccc3c(n2)N(C(=O)NC(C)C)[C@H]2CCN3C2)cn1` [(9S)-5-(6-methylpyridin-3-yl)-N-(propan-2-yl)-1,6,8-triazatricyclo[7.2.1.0^{2,7}]dodeca-2,4,6-triene-8-carboxamide], in that order: “B (B (EC1.5 1-25 μM))” and greater than 150%. For the compound `O=C(Nc1ccc(F)cn1)N1c2nc(N3CCC[C@H](C(F)(F)F)C3)ccc2N2CCC[C@H]1C2` [drawing 1177, (9S)-N-(5-fluoropyridin-2-yl)-5-[(3S)-3-(trifluoromethyl)piperidin-1-yl]-1,6,8-triazatricyclo[7.3.1.0 {2,7}]trideca-2(7),3,5-triene-8-carboxamide], under “Trp peptide assay”, the “TRP Activity (EC1.5)” value is “A (A (EC1.5<1 μM))”. In addition, the Emax under setting [1] was greater than 150%. `Cc1cc(-c2ccc3c(n2)N(C(=O)Nc2cnccn2)[C@H]2CCN3C2)c(F)cn1` [(9S)-5-(5-fluoro-2-methylpyridin-4-yl)-N-(pyrazin-2-yl)-1,6,8-triazatricyclo[7.2.1.0 {2,7}]dodeca-2(7),3,5-triene-8-carboxamide]: for the setting “Trp peptide assay”, the “TRP Activity (EC1.5)” value is reported as “B (B (EC1.5 1-25 μM))”. Further, the Emax under setting [1] was greater than 150%.
